In US12410184B2, “Crystalline forms of a menin inhibitor” (Kura Oncology, Inc., priority 2023, dated 2025):

Assays:
[1] = Solid form stability under humidity or vacuum/heat; assay type: physicochemical
Method: Treatment of Form 5 at 40° C., 75% relative humidity for 6 days provided mainly Form 4.
Treatment of Form 4 at 50° C. under vacuum and inert atmosphere for 5 days provided mainly Form 4.

[2] = Compound 1, Form 1 and Form 5 interconversion study (slurry in saturated solutions, XRPD); assay type: physicochemical; conditions: conclusion from Table 5 interconversion study
Method: Saturated solutions of Compound 1, Form 1, in EtOH, MTBE, and isopropyl acetate at 50° C. were prepared. About 6 mg of Compound 1, Form 1, and Compound 1, Form 5, were weighed into each saturated solutions, and the resulting suspensions were slurried for 2 days at corresponding temperature. The resulting solids were sampled for XRPD analysis.

CNc1nc(NC2CCN(Cc3ccc4c(cc(C#N)n4C[C@H](C)N4CCN(S(C)(=O)=O)CC4)c3C)CC2)c2cc(CC(F)(F)F)sc2n1 [Compound 1, Form 4, (S)-4-methyl-5-((4-((2-(methylamino)-6-(2,2,2-trifluoroethyl)thieno[2,3-d]pyrimidin-4-yl)amino)piperidin-1-yl)methyl)-1-(2-(4-(methylsulfonyl)piperazin-1-yl)propyl)-1H-indole-2-carbonitrile]
Solid form after treatment ([1]; 50° C. under vacuum and inert atmosphere, 5 days): mainly Form 4

CNc1nc(NC2CCN(Cc3ccc4c(cc(C#N)n4C[C@H](C)N4CCN(S(C)(=O)=O)CC4)c3C)CC2)c2cc(CC(F)(F)F)sc2n1 [Compound 1, Form 1, (S)-4-methyl-5-((4-((2-(methylamino)-6-(2,2,2-trifluoroethyl)thieno[2,3-d]pyrimidin-4-yl)amino)piperidin-1-yl)methyl)-1-(2-(4-(methylsulfonyl)piperazin-1-yl)propyl)-1H-indole-2-carbonitrile]
Thermodynamic stability of crystalline form [2]: thermodynamically stable crystalline form

CNc1nc(NC2CCN(Cc3ccc4c(cc(C#N)n4C[C@H](C)N4CCN(S(C)(=O)=O)CC4)c3C)CC2)c2cc(CC(F)(F)F)sc2n1 [Compound 1, Form 5, (S)-4-methyl-5-((4-((2-(methylamino)-6-(2,2,2-trifluoroethyl)thieno[2,3-d]pyrimidin-4-yl)amino)piperidin-1-yl)methyl)-1-(2-(4-(methylsulfonyl)piperazin-1-yl)propyl)-1H-indole-2-carbonitrile]
Solid form after treatment ([1]; 40° C., 75% relative humidity, 6 days): mainly Form 4
